Results as given in patent US12491176B2, “Methods, compositions, kits and uses thereof targeting and/or treating VRK2 to enhance effectiveness of immune checkpoint inhibitor(s)” (THE TRUSTEES OF COLUMBIA UNIVERSITY IN THE CITY OF NEW YORK, priority 2021, dated 2025).
“Also recorded” adds a separate entry of the source.

Columns and labels:
4T1 tumor = assay: 4T1 mouse breast cancer tumor model in BALB/c mice, tumor growth; assay type: in vivo
Excerpt: (§1) One million MC38 or 4T1 cells were used for inoculation, implanted subcutaneously in the right hind flank of mice. Tumor growth was monitored using electronic calipers and calculated according to the formula: V=length×width^2×0.52. For T cell phenotypic analysis by flow cytometry, spleens and inguinal lymph nodes were harvested 17 days post-treatment initiation. Splenic and tdLN cells were stained with anti-mouse antibodies for flow cytometry analysis. To deplete T cells, mice received intraperitoneal injection of 200 μg anti-CD4 (BioXcell BE0003) and 200 μg anti-CD8 (BioXcell BE0061) antibodies in PBS, a second dose of the antibodies was administered two days later. […] Cell viability was measured with PrestoBlue (Invitrogen). […] Prexasertib was given S.C. at 10 mg/kg. All drugs were given for 12 days.

[1] = system: PAK2 S197 phosphorylation; assay: Western blot of PAK2 S197 phosphorylation in Jurkat T cells following PD-1 ligation; assay type: cell-based, human
Procedure: To determine PAK phosphorylation, 5×10^6 Jurkat T cells were washed with cold PBS and resuspended in complete RPMI. The cells were stimulated for 5 minutes with Dynabeads at 37° C. as indicated above (beads/cells ratio of 3:1). The samples were treated with Calyculin A (CST 99025) at 100 nM for 25 minutes at 37° C., washed once with cold PBS and centrifugation at 500×g and lysed with RIPA buffer supplemented with PhosStop (Roche) for 1 hr at 4° C. Following 10 second sonication and centrifugation at 12,000×g for 10 minutes at 4° C., the samples were blotted using Phospho-PAK1 (Ser199/204)/PAK2 (Ser192/197) antibody (Cell Signaling). Blots were imaged and analyzed using Licor Odyssey.
Therefore, it was sought to validate the in silico predictions in Jurkat T cells with and without pharmacological VRK2 inhibition as well as in shRNA VRK2 knockdown Jurkat T cell line.

mouse splenocytes = conditions: overnight treatment
MC38 tumor = assay: MC38 syngeneic mouse tumor model, tumor growth; assay type: in vivo
Excerpt: as §1
(§2) The MC38 syngeneic mouse tumor model was used to determine whether VRK2 inhibition alone or in combination with PD-1 blockade would improve anti-tumor immune response (see, e.g., FIG. 3A).
Utilizing an immunocompetent syngeneic model, C57BL/6 mice were injected with colon adenocarcinoma cell line MC38 and treated with kinase inhibitors as monotherapy or in combination with a mouse immune checkpoint blocking antibody (clone RMP1.14) for PD-1.

[2] = system: T cells in tdLN and spleen; assay: T cell phenotypic analysis by flow cytometry in tdLN and spleen of MC38 tumor mice; assay type: in vivo, mouse
Excerpt: as §1, §2

T cells = assay: Toxicity to T cells; assay type: cell-based
PD-1 signaling = assay: In vitro ability of PD-1 to inhibit cytokine secretion with IC-261; assay type: cell-based
Procedure: IL-2, IL-8, and IFN-γ concentrations in the supernatant were measured by enzyme linked immunosorbent assay (ELISA) from BioLegend.
IC-261 (AdooQ®: A15764), a small molecule specific inhibitor of VRK2 was used to evaluate the effect of VRK2 inhibition in tumor growth using mice MC38 syngenetic tumor model. This drug was also used in in vitro experiments where the ability of PD-1 to inhibit cytokine secretion was evaluated.

SMILES | reduction in tumor growth (4T1 tumor; AZD-7762 alone, 4T1 in BALB/c mice (resistant to PD-1 monotherapy)) [%] | reduction in tumor growth, combination versus AZD-7762 alone (4T1 tumor; combination of AZD-7762 and anti-PD-1, 4T1 in BALB/c mice) | PAK2 S197 phosphorylation following PD-1 ligation [1] | cytotoxicity compared to two other CHK specific inhibitors (mouse splenocytes) | MC38 tumor volume compared to Prexasertib (LY2606368) and PF-477,736 (MC38 tumor; AZD-7762 25 mg/kg, PF 10 mg/kg, Prexasertib 10 mg/kg, 12 days) | tumor inhibition (MC38 tumor; AZD-7762 in combination treatment with anti-PD-1, MC38 in C57BL/6 mice) | tumor volume compared to vehicle or anti-PD-1 antibody treatment (MC38 tumor; AZD-7762 treatment alone, MC38) | anti-tumor activity after CD4+ and CD8+ T cell depletion (MC38 tumor; MC38 model, T cells depleted with anti-CD4 and anti-CD8 antibodies) | anti-tumor responses compared to PD-1 blockade alone or AZD-7762 treatment alone (MC38 tumor; combination of AZD-7762 with PD-1 blockade, MC38) | inhibited tumor growth (MC38 tumor; monotherapy, 25 mg/kg intraperitoneal (I.P.), MC38 in C57BL/6 mice) [%] | proportion of CD8 T cells in tumor draining lymph nodes (tdLN) ([2]; combination of AZD-7762 with PD-1 blockade) | proportion of CD44+PD-1+ T cells in spleen and tdLN ([2]; combination therapy) | proportion of activated CD44+CD69+ CD4+ and CD8+ T cells in the tdLN ([2]; combination therapy) | LAG-3+ CD8+ T cells ([2]; combination therapy, tdLN) | inhibition of tumor growth (MC38 tumor; monotherapy, 5 mg/kg, MC38 in C57BL/6 mice) | toxicity to T cells (T cells) | effect on PD-1 signaling and function (ability of PD-1 to inhibit cytokine secretion) (PD-1 signaling)
NC(=O)Nc1cc(-c2cccc(F)c2)sc1C(=O)N[C@H]1CCCNC1 [AZD-7762] | ~30 | similar | fully inhibited | less cytotoxicity | marked decrease in MC38 tumor volume | around 90% | significantly decreased tumor volume | fully reversed the anti-tumor activity; also recorded: impaired the efficacy | augmented anti-tumor responses | ~80 | increased proportion of CD8 T cells | elevated proportion | significantly increased proportion | significantly increased |  |  | 
COc1cc(OC)c(C=C2C(O)=Nc3ccccc32)c(OC)c1 [IC-261] |  |  |  |  |  |  |  |  |  |  |  |  |  |  | inhibition of tumor growth, like anti-PD-1 dosed as monotherapy | not toxic to T cells | interfere with PD-1 signaling and function
